Source: patent US12540165B2, “HSP fusion protein with anti-chemorepellant agent for treatment of cancer” (The General Hospital Corporation, priority 2016, dated 2026)
Where two headings read alike, the source gives them in different places.

How the values were obtained:
[1] = tested on: Luc-40L mesothelioma cancer cells; assay: Luc-40L mesothelioma model, survival (Example 4); type: in vivo, C57BL/6 mice; conditions: compared to saline, VIC-008 20 μg, AMD3100 1 μg/g body weight, once a week for four weeks
[2] = tested on: Luc-AE17 mesothelioma cancer cells; assay: Luc-AE17 mesothelioma model, survival (Example 4); type: in vivo, C57BL/6 mice; conditions: compared to saline, VIC-008 20 μg, AMD3100 1 μg/g body weight, once a week for four weeks
[3] = tested on: 40L mouse mesothelioma cell line; assay: 40L intraperitoneal malignant mesothelioma model: tumor weight and survival (Example 5); type: in vivo, C57BL/6 mice; conditions: compared to saline
[4] = tested on: AE17 mouse mesothelioma cell line; assay: AE17 intraperitoneal malignant mesothelioma model: tumor weight and survival (Example 5); type: in vivo, C57BL/6 mice; conditions: compared to saline
[5] = tested on: 40L mouse mesothelioma cell line; assay: Immune profiling by flow cytometry of spleens and tumors of 40L tumor-bearing mice; type: in vivo, C57BL/6 mice
[6] = tested on: AE17 mouse mesothelioma cell line; assay: Immune profiling by flow cytometry of spleens, lymph nodes and tumors of AE17 tumor-bearing mice; type: in vivo, C57BL/6 mice
[7] = tested on: 40L mouse mesothelioma cell line; assay: Ex vivo restimulation with recombinant mesothelin, intracellular IFN-γ in CD8+ T cells, 40L mice; design: species or system C57BL/6 mice; conditions: splenic CD8+ T cells, compared to saline
[8] = tested on: AE17 mouse mesothelioma cell line; assay: Ex vivo restimulation with recombinant mesothelin, intracellular IFN-γ in CD8+ T cells, AE17 mice; design: species or system C57BL/6 mice; conditions: compared to saline
[9] = tested on: Foxp3^+ Treg cells; conditions: AMD3100 5 μg/ml, 24 hours
[10] = spleens, 40L, compared to saline
[11] = tumors, 40L, compared to saline
[12] = lymph nodes, AE17, compared to saline
[13] = spleens, AE17, compared to saline
[14] = tumors, AE17, compared to saline

c1cc(CN2CCCNCCNCCCNCC2)ccc1CN1CCCNCCNCCCNCC1 [AMD3100, 1,1′-[1,4-phenylenebis(methylene)]bis[1,4,8,11-tetraazacyclotetradecane]]
survival of tumor-bearing mice [1]: slight effect on survival
survival of tumor-bearing mice [2]: slight effect on survival
animal survival [3]: only modest benefit to survival
animal survival [4]: only modest benefit to survival
proportions of Treg cells ([5]; spleens of 40L tumor-bearing mice): did not alter
proportion of CD8+ T cells in total live cells [5, 10]: did not increase
proportion of PD-1-expressing CD8+ T cells [5, 10]: significantly fewer
IL-2+ CD40L+ cells in the Foxp3+ CD25− Treg population ([5]; tumors of 40L mice): significantly more cells
ratio of CD25− cells to CD25+ cells within the Foxp3+ population ([5]; tumors of 40L mice): significantly increased
proportion of CD8+ T cells in total live cells [5, 11]: did not increase
proportion of PD-1-expressing CD8+ T cells [5, 11]: significantly fewer
proportions of Treg [5, 11]: significantly decreased
ratio of CD8+ T cells to Treg [5, 11]: increased
IL-2+ CD40L+ cells in the Foxp3+ CD25− Treg population ([6]; lymph nodes of AE17 mice): significantly more cells
cell ratio of CD8+ T cells to Treg cells [6, 12]: significantly increased
proportion of CD8+ T cells in total live cells [6, 12]: did not increase
proportion of PD-1-expressing CD8+ T cells [6, 12]: significantly fewer
ratio of CD25− cells to CD25+ cells within the Foxp3+ population ([6]; lymph nodes, AE17 model): significantly increased
Treg in the lymph nodes ([6]; lymph nodes, AE17 tumor-bearing mice): generally reduced
proportion of CD8+ T cells in total live cells [6, 13]: did not increase
proportion of PD-1-expressing CD8+ T cells [6, 13]: significantly fewer
proportion of CD8+ T cells in total live cells [6, 14]: did not increase
proportion of PD-1-expressing CD8+ T cells [6, 14]: significantly fewer
proportions of Treg [6, 14]: significantly decreased
ratio of CD8+ T cells to Treg [6, 14]: increased
mesothelin-specific IFN-γ expression in CD8+ T cells [7]: did not enhance
mesothelin-specific IFN-γ expression in CD8+ T cells ([8]; lymph node CD8+ T cells): did not enhance
mesothelin-specific IFN-γ expression in CD8+ T cells ([8]; splenic CD8+ T cells): did not enhance
ratio of the proportion of CD25− cells to CD25+ cells in the Foxp3+ CD4+ population ([9]; no anti-CD3/CD28 stimulation): did not change
conversion of Foxp3+ CD25− Treg into IL-2+ CD40L+ cells ([9]; with anti-CD3/CD28 stimulation): converted more
ratio of the proportion of CD25− cells to CD25+ cells in the Foxp3+ CD4+ population ([9]; with anti-CD3/CD28 stimulation): significantly increased
